Results as given in PubChem BioAssay (NCI).
Where “and” joins values, the source holds several entries; their conditions need not be identical. Equal values may be shown once.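 Grown in 96-well plates, cells were treated for 48 hours with each compound at five concentrations. Insufficient inhibition: endpoint recorded as highest concentration tested. GI50 is the concentration that inhibits growth by half. TGI marks complete inhibition of growth.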

Legend:
Test in all cases: NCI tumour cell line growth inhibition, 48 h
[1] = test system: ACHN renal
[2] = test system: CAKI-1 renal
[3] = test system: HOP-62 NSCLC
[4] = test system: MDA-MB-231 breast
[5] = test system: NCI-H23 lung
[6] = test system: NCI-H460 lung
[7] = test system: OVCAR-3 ovarian
[8] = test system: RPMI-8226 leukemia
[9] = test system: UO-31 renal
[10] = test system: MDA-MB-435

| Compound | TGI [1] | TGI [2] | TGI [3] | TGI [4] | TGI [5] | TGI [6] | TGI [7] | TGI [8] | TGI [9] | TGI [10] | GI50 [5] | GI50 [7] | GI50 [1] | GI50 [2] | GI50 [3] | GI50 [4] | GI50 [10] | GI50 [8] | GI50 [9] | GI50 [6] |
| --- | --- | --- | --- | --- | --- | --- | --- | --- | --- | --- | --- | --- | --- | --- | --- | --- | --- | --- | --- | --- |
| Brc1ccc(-c2[nH]c3ccccc3c2/C=N\Nc2ccc(-c3nc4ccccc4[nH]3)cc2)cc1 | 17.3 µM | > 100 µM | > 68.5 µM | 0.559 µM | > 46.6 µM | > 51.6 µM | > 100 µM | 25.4 µM | > 100 µM |  |  |  |  |  |  |  |  |  |  |  |
| c1ccc(CSC(SCc2ccccc2)c2cccc3ccccc23)cc1 | > 10 µM | > 10 µM | > 10 µM | > 10 µM | > 10 µM | > 10 µM |  | > 10 µM | > 10 µM | > 10 µM |  |  |  |  |  |  |  |  |  |  |
| COc1cc(/C=N/NC(=O)c2c(Cl)c(Cl)c(Cl)c(Cl)c2-c2nc3ccc(C(=O)c4ccccc4)cc3[nH]2)ccc1O | > 100 µM | > 100 µM | > 100 µM | > 100 µM | > 100 µM |  | > 100 µM | 89.5 µM | > 100 µM | > 100 µM |  |  |  |  |  |  |  |  |  |  |
| CCOC(=O)C1=C(C(=O)OCC)SC2(S1)C(C(=O)OCC)=C(C(=O)OCC)Sc1c2ssc1=O | 3.11 µM | 5.15 µM | 3.21 µM | 3.88 µM | 4.02 µM | 21.9 µM | 3.16 µM | 4.56 µM | 3.25 µM | 3.93 µM |  |  |  |  |  |  |  |  |  |  |
| Cc1csc2nc(-c3cccc([N+](=O)[O-])c3)c(/C=N/N=C(N)N)n12 | 3.63 µM | 8.71 µM |  | 2.95 µM | 3.49 µM | 9.61 µM | 4.24 µM |  | 2.68 µM | 3.03 µM |  |  |  |  |  |  |  |  |  |  |
| CCCCCCCCCCCCc1ccc(S(=O)(=O)O)cc1.[Cu+2] | > 100 µM | > 100 µM | > 100 µM | > 100 µM | > 100 µM | > 100 µM | > 100 µM | > 100 µM | > 100 µM | > 100 µM |  |  |  |  |  |  |  |  |  |  |
| O=C(CSCC(=O)N/N=C\c1ccc(F)cc1F)N/N=C\c1ccc(F)cc1F | > 100 µM | > 100 µM | > 100 µM | > 100 µM | > 100 µM | > 100 µM | > 100 µM | > 100 µM | > 100 µM | > 100 µM |  |  |  |  |  |  |  |  |  |  |
| COC(=O)c1c(O)ccc2c1c1c(n2CCc2ccc(OC)c(OC)c2)C(=O)c2ccccc2C1=O | 35.9 µM | 38.3 µM | 32.9 µM | 52.3 µM | 31.5 µM | 19.5 µM | 40.6 µM | 28 µM | 34.6 µM | 29.2 µM |  |  |  |  |  |  |  |  |  |  |
| COc1ccccc1C#C/C=C\C#Cc1ccccc1C#N | > 100 µM | 61.5 µM | 62.5 µM |  | 25 µM | > 100 µM | 24.5 µM |  | 67.2 µM | 14.5 µM |  |  |  |  |  |  |  |  |  |  |
| Cc1ncc(C(=O)Nc2ccc(CN3CCN(C)CC3)c(C(F)(F)F)c2)cc1C#Cc1cnc(N)c2ccc(C#N)cc12 |  |  |  |  | 3.28 µM |  | 8.09 µM |  |  |  | 0.0959 µM | 0.0949 µM |  |  |  |  |  |  |  |  |
| N#CC1(CCCI)CCCC1 | > 100 µM |  |  |  | 24.7 µM | 25.9 µM | 31.1 µM |  | > 100 µM |  |  |  |  |  |  |  |  |  |  |  |
| Cc1cc(C)c2c(=O)n(CC(O)CN(Cc3ccccc3)CC(O)Cn3sc4nc(C)cc(C)c4c3=O)sc2n1 (stereo unspecified) | 30.1 µM | 33.4 µM | 30.1 µM | 31.6 µM | 33.4 µM | 39.3 µM | 29.8 µM | > 100 µM | 31.6 µM | 31.4 µM |  |  |  |  |  |  |  |  |  |  |
| Cc1[nH]c(C(=O)Nc2ccc(C(=O)NCCN)cc2OC(C)C)c(Cl)c1Cl | 3.07 µM | 3.04 µM | 4.53 µM | 3.27 µM |  |  |  | 4.49 µM | 2.96 µM | 3.08 µM |  |  | 1.67 µM | 1.63 µM | 1.95 µM | 1.69 µM | 1.66 µM | 1.92 µM | 1.54 µM |  |
| CC(=O)OC(C(=O)O)C(OC(C)=O)C(OC(C)=O)C(OC(C)=O)C(=O)O (stereo unspecified) |  | > 100 µM | > 100 µM | > 100 µM | > 100 µM | > 100 µM | > 100 µM | > 100 µM | > 100 µM | > 100 µM |  |  |  |  |  |  |  |  |  |  |
| O=S(=O)(c1ccccc1)C1CC(c2nc3ccccc3[nH]2)=NO1 (stereo unspecified) | > 100 µM | > 100 µM | > 100 µM | > 100 µM | > 100 µM | > 100 µM | > 100 µM | > 100 µM | > 100 µM | > 100 µM |  |  |  |  |  |  |  |  |  |  |
| C[C@]12CC[C@H]3[C@@H](CC=C4C[C@@H](O)CC[C@@]43C)[C@@H]1C/C(=C\c1ccncc1)[C@@H]2O | 50.5 µM | 57.4 µM | > 100 µM | 99.2 µM | 33.6 µM | 42.2 µM | > 100 µM | 48.9 µM | > 100 µM | 47.9 µM |  |  |  |  |  |  |  |  |  |  |
| N#Cc1c(-c2ccc([N+](=O)[O-])cc2)c2c([nH]c1=O)-c1ccccc1CCC2 | > 100 µM | > 100 µM | > 100 µM | > 100 µM | > 100 µM | > 100 µM | > 100 µM | > 100 µM | > 100 µM | > 100 µM |  |  |  |  |  |  |  |  |  |  |
| c1ccc(/C(=N\Nc2nc3ccccc3[nH]2)c2ccccn2)cc1 | 2 µM | 8.79 µM | 2.12 µM | 41.2 µM | 14.5 µM | 13.1 µM | 2.99 µM | 1.07 µM | 6.73 µM | 13.7 µM |  |  |  |  |  |  |  |  |  |  |
| O=C1Nc2cccc(Cl)c2/C1=C\c1cccnc1 | > 100 µM | 24.2 µM | 19.1 µM |  | 15.8 µM | 36.5 µM | 21.2 µM |  | 18.5 µM | 19.8 µM |  |  |  |  |  |  |  |  |  |  |
| O=C1OC(c2ccc(O)cc2)(c2ccc(O)cc2)c2ccc(Cl)c3cccc1c23 (tested in a mixture with another compound) | 39.8 µM | 22 µM | 16.2 µM | 26.1 µM | 31 µM | 23.7 µM | > 75 µM | 28.4 µM | > 75 µM | 18.9 µM |  |  |  |  |  |  |  |  |  |  |
| O=C(O)c1cc2ccccc2c(N=Nc2ccc(S(=O)(=O)Nc3ccccn3)cc2)c1O | > 100 µM | > 100 µM | > 100 µM | > 100 µM |  | > 100 µM | > 100 µM | > 100 µM | > 100 µM | > 100 µM |  |  |  |  |  |  |  |  |  |  |
| C[n+]1c2ccccc2c(N=[N+]=[N-])c2ccccc21 | > 10 µM | > 10 µM | > 10 µM | > 10 µM | > 10 µM | > 10 µM | > 10 µM | > 10 µM |  | > 10 µM |  |  |  |  |  |  |  |  |  |  |
| CC[C@@]1(O)CC(OC2CC(N3CCOCC3)C(O)C(C)O2)c2c(O)c3c(c(O)c2[C@H]1O)C(=O)c1cccc(O)c1C3=O (stereo partly specified) | 0.0815 µM | 0.318 µM and 0.243 µM | 0.597 µM and 0.427 µM | 1.94 µM | 1.95 µM and 1.09 µM | 0.554 µM and 0.113 µM | 2.73 µM and 1.63 µM | 2.15 µM and 5.08 µM | 1.57 µM and 3.28 µM | 1.14 µM | 0.101 µM | 0.176 µM |  |  |  |  |  | 0.0561 µM | 0.437 µM and 0.828 µM | 52 pM |
| C=C(CN(C)C)C(=O)c1ccccc1OC | 28.2 µM | 26.1 µM | > 100 µM | 28 µM | 33.7 µM | 63.2 µM | 32.9 µM | > 62.7 µM | 31.3 µM | 34.2 µM |  |  |  |  |  |  |  |  |  |  |
